According to patent US11925632B2, “Isoquinoline derivatives for use in treating GLUT1 deficiency syndrome” (GLIAPHARM SA, priority 2019, dated 2024):

How the values were obtained:
Type in all cases: cell-based
astrocytes = assay: Extracellular medium acidification (SNARF5) assay in astrocytes; details: Mus musculus, Astrocyte, 1.5 h; astrocytes in vitro, 90 min stimulation, 10 nM to 30 μM
Description: Secretion of lactate was measured indirectly through the acidification of extracellular medium using extracellular pH sensor SNARE-5F-(AND-6)-CAR (SNARF5) as described below.
Secretion of lactate was measured indirectly through the acidification of extracellular medium using extracellular pH sensor […] (SNARF5). After washing cells twice with stimulation medium (DMEM (D5030, Sigma), 1 mM […], and 5 mM Glucose, pH 7.4) at 37° C., cells were stimulated with compounds at a final concentration ranging from 10 nM to 30 μM in 50 μl per well of stimulation medium supplemented with 10 μM of SNARF5 (Life Technologies Corporation). Each compound was tested in two different plates for duplicates. After 90 min stimulation, fluorescence was read at exc. (excitation) 480 nm/emm. (emission) 580 nm and at exc 480 nm/emm. 630 nm. The ratio of fluorescence between 630 nm and 580 emission values, which is proportional to extracellular pH, was calculated. In each plate, 8 wells were used for negative controls (DMSO 0.1%) and 8 wells were used for positive controls (CCCP 2 μM in DMSO).
Table 3 below lists compounds that are active on the extracellular medium acidification (SNARF5) assay in astrocytes in vitro, which indicates their ability to produce lactate. ‘+’ indicates activity of compounds with EC50>5 μM; ‘++’ indicates activity of compounds with EC50<5 μM.
(§1) Primary cultures of cerebrocortical astrocytes were obtained from 1 to 2-day-old OF1 mouse pups (Charles River). Briefly, cortices were isolated and minced in small pieces under a dissecting microscope. The cells were incubated for 30 min at 37° C. in a solution containing 20 U/ml papain, 1 mM L-cysteine and 10 kU/ml DNase I. After dissociation, papain activity was stopped by the addition of fetal calf serum (FCS). Single-cell suspension was then obtained by mechanical dissociation, which consisted in cells trituration in a DMEM D7777 medium supplemented with 44 mm NaHCO3, 10 ml/L antibiotic/antimycotic solution and 10% FCS. The cells were seeded at an average density of ˜10′000 cells/cm^2 on poly-D-lysine coated 96- or 12-well culture plates, depending on their use, and grown in DMEM D7777 medium supplemented with 44 mm NaHCO3, 10 ml/L antibiotic/antimycotic solution and 10% FCS at 37° C. in a humidified atmosphere containing 5% CO2/95% air. Culture medium was renewed twice a week. Cells were stimulated and harvested between DIV14 and DIV17, when confluence and cell growth were optimal.

primary mouse astrocytes = assay: Extracellular lactate quantification (lactate release from primary astrocytes); details: Astrocyte, 1.5 h; for EC50: primary mouse astrocytes, 90 min stimulation, read-out: EC50 of astrocyte-mediated lactate secretion; for Emax: Mus musculus, positive control CCCP 2 μM, 90 min, read-out: Maximal effect on lactate secretion compared to the effect of the positive control (100%)
Description: as §1
Secretion of L-lactate was measured in the extracellular medium of 96-well plated astrocytes after 90 min stimulation (at 37° C., in 5% CO2/95% air conditions) with Vehicle (DMSO), the compounds of the invention (100 nM to 100 μM) or positive control. […] Stimulation medium was composed of D5030 medium complemented with 5 mM D-glucose and 44 mM sodium bicarbonate, pH 7.2. To quantify lactate concentrations in the extracellular medium, 200 μl of a 0.2M Glycine-semicarbazide buffer (pH 10) containing 3 mM NAD and 14 U/ml LDH was added to each well of a 96-well plate containing 30 μl aliquots of extracellular medium. Samples were incubated at 37° C. for 1 h. Fluorescence intensity (340 nm excitation/450 nm emission), which represents the amount of NADH produced, was measured, and lactate concentration values were determined relative to a standard curve of L-lactate concentrations.
The release of lactate from primary mouse astrocytes treated with compound (1) at 10 μM was quantified by (FIG. 1). Accumulation of lactate in the extracellular medium was measured over a period of 1.5 h. […] Maximal effects of the compounds were 38.6% (1), 38% (2), 31% (4) and 76% (3) when compared to the effect of the positive control (100%) for compounds (1) to (4), respectively.

primary astrocytes = assay: MTT mitochondrial activity assay; details: Mus musculus, Astrocyte, 24 h treatment
Description: as §1
To monitor mitochondrial activity in astrocytes, which is linked to the metabolic process of glycolysis and production of lactate, astrocytes in 96-well plates were stimulated for 24 h (37° C. 5% CO2/95% air) with the compounds of the invention ranging from 0.2 to 200 μM.
After stimulation, 5 mg/ml thiazol blue tetrazolium bromide (MTT) in D5030 medium complemented with 5 mM D-glucose and 44 mM sodium bicarbonate (pH 7.2) was added to each well, and cells were incubated for 4 h at 37° C. (5% CO2). The medium was then removed and the amount of reduced MTT, i.e. formazan, solubilized in DMSO (50 μl/well) was determined using a spectrophotometer (absorbance of 570 nm).
The mitochondrial activity in primary astrocytes treated with Compounds (1) to (4) at concentrations ranging from 1 nM to 200 μM. After 24 h, mitochondrial activity was monitored in MTT colorimetric assay as described above (FIG. 3).

Row | Compound | EC50 (astrocytes) [µM] | also measured
1 | COc1ccc(Nc2nccc3cc(OC)c(OC)cc23)cc1OC [Example 5, N-(3,4-dimethoxyphenyl)-6,7-dimethoxyisoquinolin-1-amine] | > 5 | –
2 | COc1cc2ccnc(Nc3ccc(C)cc3)c2cc1OC [Example 6, 6,7-dimethoxy-N-(p-tolyl)isoquinolin-1-amine] | > 5 | –
3 | COCCOc1ccc(Nc2nccc3cc(OC)c(OC)cc23)cc1 [Example 8, 6,7-dimethoxy-N-(4-(2-methoxyethoxy)phenyl)isoquinolin-1-amine] | > 5 | –
4 | COCc1ccc(Nc2nccc3cc(OC)c(OC)cc23)cc1 [Example 9, 6,7-dimethoxy-N-(4-(methoxymethyl)phenyl)isoquinolin-1-amine] | > 5 | –
5 | COc1cc2ccnc(Nc3ccc(OC(F)(F)F)cc3F)c2cc1OC [Example 10, N-(2-fluoro-4-(trifluoromethoxy)phenyl)-6,7-dimethoxyisoquinolin-1-amine] | > 5 | –
6 | COc1cc2ccnc(Nc3ccc(OC(F)(F)F)c(F)c3)c2cc1OC [Example 14, N-(3-fluoro-4-(trifluoromethoxy)phenyl)-6,7-dimethoxyisoquinolin-1-amine] | > 5 | –
7 | COc1cc2ccnc(Nc3cccc(N(C)C)c3)c2cc1OC [Example 15, N^1-(6,7-dimethoxyisoquinolin-1-yl)-N^3,N^3-dimethylbenzene-1,3-diamine] | > 5 | –
8 | COc1cc2ccnc(Nc3cccc(OC(F)F)c3)c2cc1OC [Example 16, N-(3-(difluoromethoxy)phenyl)-6,7-dimethoxyisoquinolin-1-amine] | < 5 | –
9 | COc1cc2ccnc(Nc3ccc(C#N)cc3C(F)(F)F)c2cc1OC [Example 17, 4-((6,7-dimethoxyisoquinolin-1-yl)amino)-3-(trifluoromethyl)benzo-nitrite] | > 5 | –
10 | COc1cc2ccnc(Nc3ccc(SC)cc3)c2cc1OC [Example 18, 6,7-dimethoxy-N-(4-(methylthio)phenyl)isoquinolin-1-amine] | > 5 | –
11 | COc1cc2ccnc(Nc3ccc(OC(F)(F)F)c(Cl)c3)c2cc1OC [Example 19, N-(3-chloro-4-(trifluoromethoxy)phenyl)-6,7-dimethoxyisoquinolin-1-amine] | < 5 | –
12 | COCCc1ccc(Nc2nccc3cc(OC)c(OC)cc23)cc1 [Example 20, 6,7-dimethoxy-N-(4-(2-methoxyethyl)phenyl)isoquinolin-1-amine] | < 5 | –

Second part, led by results:

Row | EC50 (astrocytes) [µM] | Compound | also measured
13 | > 5 | COc1cc2ccnc(Nc3ccc(C(F)(F)F)cc3)c2cc1OC [Example 2, 6,7-dimethoxy-N-(4-(trifluoromethyl)phenyl)isoquinolin-1-amine] | EC50 (primary mouse astrocytes): 10.1 µM; Emax (primary mouse astrocytes): 38%; IC50 (primary astrocytes): 42.9 µM
14 | > 5 | FC(F)(F)Oc1ccc(Nc2nccc3ccccc23)cc1 [Example 3, N-(4-(trifluoromethoxy)phenyl)isoquinolin-1-amine] | EC50 (primary mouse astrocytes): 10.9 µM; Emax (primary mouse astrocytes): 76%; IC50 (primary astrocytes): 26.6 µM
15 | > 5 | COc1cc2ccnc(Cc3ccc(OC(F)(F)F)cc3)c2cc1OC [Example 4, 6,7-dimethoxy-1-(4-(trifluoromethoxy)benzyl)isoquinoline] | EC50 (primary mouse astrocytes): 10.5 µM; Emax (primary mouse astrocytes): 31%; IC50 (primary astrocytes): 5.5 µM
16 | > 5 | COc1ccc(Nc2nccc3cc(OC)c(OC)cc23)cc1 [Example 7, 6,7-dimethoxy-N-(4-methoxyphenyl)isoquinolin-1-amine] | –
17 | < 5 | COc1cc2ccnc(Nc3cccc(OC(F)(F)F)c3)c2cc1OC [Example 11, 6,7-dimethoxy-N-(3-(trifluoromethoxy)phenyl)isoquinolin-1-amine] | –
18 | > 5 | COc1ccc2c(Nc3ccc(OC(F)(F)F)cc3)nccc2c1 [Example 12, 6-methoxy-N-(4-(trifluoromethoxy)phenyl)isoquinolin-1-amine] | –
19 | > 5 | FC(F)(F)Oc1ccc(Nc2nccc3cc(Cl)ccc23)cc1 [Example 13, 6-chloro-N-(4-(trifluoromethoxy)phenyl)isoquinolin-1-amine] | –
20 | < 5 | COc1ccc2c(Nc3ccc(OC(F)(F)F)cc3)nccc2c1C [Example 21, 6-methoxy-5-methyl-N-(4-(trifluoromethoxy)phenyl)isoquinolin-1-amine] | –
21 | > 5 | COc1ccc2c(Nc3ccc(OC(F)(F)F)cc3)ncc(C)c2c1 [Example 24, 6-methoxy-4-methyl-N-(4-(trifluoromethoxy)phenyl)isoquinolin-1-amine] | –
22 | > 5 | COc1ccc2c(Nc3ccc(OC(F)(F)F)cc3)ncc(Br)c2c1 [Example 25, 4-bromo-6-methoxy-N-(4-(trifluoromethoxy)phenyl)isoquinolin-1-amine] | –
23 | < 5 | CN(C)c1ccc2c(Nc3ccc(OC(F)(F)F)cc3)nccc2c1 [Example 27, N^6,N^6-dimethyl-N^1-(4-(trifluoromethoxy)phenyl)isoquinoline-1,6-diamine] | –
24 | < 5 | COC(=O)c1ccc2c(Nc3ccc(OC(F)(F)F)cc3)nccc2c1 [Example 29, methyl 1-((4-(trifluoromethoxy)phenyl)amino)isoquinoline-6-carboxylate] | –
25 | < 5 | CCc1ccc2c(Nc3ccc(OC(F)(F)F)cc3)nccc2c1 [Example 30, 6-ethyl-N-(4-(trifluoromethoxy)phenyl)isoquinolin-1-amine] | –
